In US8871933B2, “Purified pyrroloquinolinyl-pyrrolidine-2,5-dione compositions and methods for preparing and using same” (ArQule, Inc., priority 2009, dated 2014):

What was measured:
[1] = system: Human cancer cell lines expressing c-Met and/or phospho-c-Met; assay: Cytotoxicity MTS assay; format: cell-based; conditions: 0.03 to 30 μM
Experimental: (§1) Various cancer cell lines were treated with (−)-trans-3-(5,6-dihydro-4H-pyrrolo[3,2,1-ij]quinolin-1-yl)-4-(1H-indol-3-yl)pyrrolidine-2,5-dione at indicated concentrations ranging from 0.03 to 30 μM. The sensitivity of these cells to (−)-trans-3-(5,6-dihydro-4H-pyrrolo[3,2,1-ij]quinolin-1-yl)-4-(1H-indol-3-yl)pyrrolidine-2,5-dione was measured by a standard cytoxicity MTS assay (FIG. 10). Human cancer cell lines expressing c-Met and/or phospho-c-Met were sensitive to (−)-trans-3-(5,6-dihydro-4H-pyrrolo[3,2,1-ij]quinolin-1-yl)-4-(1H-indol-3-yl)pyrrolidine-2,5-dione.

[2] = system: A549 human lung cancer cells; assay: Annexin V / propidium iodide apoptosis staining; format: cell-based; design: dose or concentration left out as unconfirmed
Experimental: A549 human lung cancer cells in a 96-well plate (Costar 3603, 5,000/well) were treated with either A) DMSO as a control; B) […] (−)-trans-3-(5,6-dihydro-4H-pyrrolo[3,2,1-ij]quinolin-1-yl)-4-(1H-indol-3-yl)pyrrolidine-2,5-dione for 38 hours before addition of 1:200 fluorescent Annexin V (green) and 1:500 Propidium iodide (magenta, final concentration of […]). The labeling procedure was allowed to process at 37° C. for 20 minutes followed by image acquisition and analysis using an IC100 Image Cytometer (Beckman Coulter, Inc) with 10× amplification. To determine whether (−)-trans-3-(5,6-dihydro-4H-pyrrolo[3,2,1-ij]quinolin-1-yl)-4-(1H-indol-3-yl)pyrrolidine-2,5-dione works primarily through a cytostatic or apoptotic mechanism, cancer cells exposed to (−)-trans-3-(5,6-dihydro-4H-pyrrolo[3,2,1-ij]quinolin-1-yl)-4-(1H-indol-3-yl)pyrrolidine-2,5-dione were stained with fluorescently labeled Annexin V (green fluorescence) and propidium iodide (bright magenta fluorescence). Annexin V is a well-validated reagent that specifically binds with high affinity to externalized membrane phosphatidylserine, an early marker of the onset of apoptosis, while propidium iodide is a marker for dead cells. […] (See, FIG. 6)

PAK3 = PAK3 (Homo sapiens, UniProt O75914); assay: Kinase panel inhibition, PAK3; format: biochemical
Chain of PAK3 (O75914 whole entry): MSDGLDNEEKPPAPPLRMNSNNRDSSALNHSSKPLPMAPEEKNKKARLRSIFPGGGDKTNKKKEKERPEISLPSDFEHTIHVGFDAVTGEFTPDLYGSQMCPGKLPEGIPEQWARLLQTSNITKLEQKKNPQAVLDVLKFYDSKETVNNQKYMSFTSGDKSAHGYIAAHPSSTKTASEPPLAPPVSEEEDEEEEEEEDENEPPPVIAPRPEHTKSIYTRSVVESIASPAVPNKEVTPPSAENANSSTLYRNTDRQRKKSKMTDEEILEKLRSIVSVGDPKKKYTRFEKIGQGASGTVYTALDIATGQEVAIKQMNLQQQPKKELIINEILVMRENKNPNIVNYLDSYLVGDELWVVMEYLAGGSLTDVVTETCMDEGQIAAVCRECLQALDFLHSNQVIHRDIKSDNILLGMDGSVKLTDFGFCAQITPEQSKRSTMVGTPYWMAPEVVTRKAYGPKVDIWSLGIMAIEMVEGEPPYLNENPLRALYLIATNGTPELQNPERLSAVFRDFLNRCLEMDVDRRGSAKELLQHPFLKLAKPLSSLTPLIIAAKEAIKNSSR
Experimental: (−)-trans-3-(5,6-dihydro-4H-pyrrolo[3,2,1-ij]quinolin-1-yl)-4-(1H-indol-3-yl)pyrrolidine-2,5-dione was assessed for its activity to inhibit a large panel (n=230) of human kinases.

MCF-7 = assay: Cytotoxicity MTS assay; format: cell-based, human; conditions: 0.03 to 30 μM; no immunodetectable c-Met or phospho-c-Met
Experimental: as §1

SK-MEL-28 = assay: Cytotoxicity MTS assay; format: cell-based, human; conditions: 0.03 to 30 μM; no immunodetectable c-Met or phospho-c-Met
Experimental: as §1

NCI-H661 = assay: Cytotoxicity MTS assay; format: cell-based, human; conditions: 0.03 to 30 μM; no immunodetectable c-Met or phospho-c-Met
Experimental: as §1

In the case of `O=C1NC(=O)[C@@H](c2cn3c4c(cccc24)CCC3)[C@@H]1c1c[nH]c2ccccc12` (single isomer, unassigned) [(−)-trans-3-(5,6-dihydro-4H-pyrrolo[3,2,1-ij]quinolin-1-yl)-4-(1H-indol-3-yl)pyrrolidine-2,5-dione], the “sensitivity (cytotoxicity MTS assay)” value [1] is reported as “sensitive”, the “apoptosis (Annexin V staining)” value [2] is reported as “induced cells to undergo apoptosis” and the “cells co-stained with both Annexin V and propidium iodide (dead cells)” value [2] is reported as 10-20%. For the same molecule, the IC50 (PAK3) was about 6.6 µM, the “sensitivity (cytotoxicity MTS assay)” value (MCF-7) was “little sensitivity” and the “sensitivity (cytotoxicity MTS assay)” value (SK-MEL-28) was “little sensitivity”. For the same molecule, the “sensitivity (cytotoxicity MTS assay)” value (NCI-H661) was “little sensitivity”.
